This is an account of results in US6218438A, “Copolymer compositions for treating viral infections” (Supratek Pharma, Inc., priority 1999, dated 2001).

The target in data set [1] is T1, HIV-1 reverse transcriptase (p51/p66 RT), RNAse H activity (Human immunodeficiency virus type 1 group M subtype B, UniProt P03366).
T1 construct: 10 ng of p51/p66 heterodimeric RT per assay were used
Kind of data set: Inhibition of RNAse H activity of RT. The data set is classed as biochemical. How it is done: (§1) BBNH and Fe(III)-BBNH complex at various concentrations were examined for the ability to inhibit RNA dependent and DNA dependent DNA polymerase activities as well as RNAse H activity of HIV-1 reverse transcriptase (RT RDDP, RT DDDP, and RT RNAse H, respectively). To analyze RT RDDP and RT DDDP the following reaction mixture (100 μl total volume) was used: 50 mM Tris-HCl (pH 7.8), 60 mM KCl, 10 mM MgCl2, 10 ng of p51/p66 RT, 0.1-0.5 units of template/primer, and 0.5-25 μM [^3 H]dNTP. Aliquots of the test compounds dissolved in DMSO were added to the reaction mixtures, incubated for 10-20 min. at 37° C. and than quenched with 500 μl of cold 20 mM sodium pyrophosphate in 10% dichloroacetic acid. After 10 min. on ice, the samples were filtered on Whatman 934-AH glass fiber filters and washed with 10% dichloroacetic acid and ethanol, and the radioactivity was determined by liquid scintillation analysis. To analyze RT RNAse H the following reaction mixture (50 μl total volume) was used: 5OmM Tris-HCl (pH 8.0), 60 mM KCl, 8 mM MgCl2, and variable amounts of ([^3 H]rG)-poly(dC). Generally, 10 ng of p51/p66 heterodimeric RT per assay were used. Aliquots of the test compounds dissolved in DMSO were added to the reaction mixtures, incubated for 20 min. at 37° C. and than quenched by placing the tubes on ice followed by the addition of 100 μl of cold 7% perchloric acid. After 10 min. on ice, the samples were centrifuged at 12,000 g for 15 min. 100 μl of the supernatants were carefully removed, and the radioactivity was determined by liquid scintillation analysis.

The target in data set [2] is T2, HIV-1 reverse transcriptase (p51/p66 RT), RDDP activity (Human immunodeficiency virus type 1 group M subtype B, UniProt P03366).
T2 construct: 10 ng of p51/p66 heterodimeric RT per assay were used
Kind of data set: Inhibition of RNA dependent DNA polymerase activity of RT (RT RDDP). In kind it is biochemical. The protocol:
as §1

Another data set deals with cells. Put plainly: Cytotoxicity (general statement). In kind it is cell-based.
Another data set addresses HIV IN (integrase) (Human immunodeficiency virus type 1 group M subtype B, UniProt P03366). Kind of data set: Inhibition of DNA-binding activity of HIV integrase. The data set is classed as biochemical. The settings on record: in vitro.
The subject of data set [3] is HIV-1 infection of MT2 cells. Put plainly: Inhibition of HIV-1 infection of uninfected MT2 cells. In kind it is cell-based. To be noted: Human immunodeficiency virus 1, compound in DMSO, 30 min before HIV. How it is done:
BBNH and Fe(III)-BBNH complex at various concentrations were examined for the ability to inhibit HIV-1 infection of uninfected MT2 cells. Aliquots of a solution of the compounds in dimethyl sulfoxide were added to uninfected MT2 cells (2×10^5 cells/ml) in RPMI medium containing 10% fetal bovine serum to provide defined final concentrations of test compound. The cells and test compounds were incubated for 30 minutes at 37° C., then inoculated with a suspension of HIV virions. The cells, test compounds and HIV were incubated for 18 h at 37° C., then the cells were collected by centrifugation, washed, and resuspended in RPMI medium containing 10% fetal bovine serum and containing the same concentration of test compound as initially employed. The cells were then cultured at 37° C. (with culture medium changes as required). HIV infection was assessed by microscopic examination of HIV-induced cytopathicity (syncytium) and/or by analysis of HIV p24 antigen levels in the culture supernatants.

Data set [4] deals with T3, HIV-1 reverse transcriptase (p51/p66 RT), DDDP activity (Human immunodeficiency virus type 1 group M subtype B, UniProt P03366).
T3 construct: 10 ng of p51/p66 heterodimeric RT per assay were used
Put plainly: Inhibition of DNA dependent DNA polymerase activity of RT (RT DDDP). In kind it is biochemical. The protocol: as §1

Data set [5] in a line: Cytotoxic activity against uninfected MT2 cells (XTT assay). In kind it is cell-based, human. To be noted: human, 4 days at 37° C., in DMSO. The protocol: BBNH and Fe(III)-BBNH complex at various concentrations were examined for cytotoxic activity against uninfected MT2 cells. Aliquots of a solution of the compounds in dimethyl sulfoxide were added to the MT2 cells (2×10^5 cells/ml) in RPMI medium containing 10% fetal bovine serum to provide defined final concentrations of test compound. The cells and test compounds were cultured for 4 days at 37° C., in the presence of 5% CO2 and then cytotoxic effect of the compounds was analyzed by using the standard XTT assay. The CC50 calculated from the results were 10±0.5 μM for BBNH and more than 1000 μM for Fe(III)-BBNH.

Data set [6] concerns HIV-1 replication in cells. The settings on record: Borkow et al. 1997; cited from earlier work.
Another data set has as its target HIV-1 RT (Human immunodeficiency virus type 1 BH10, UniProt P03366). To be noted: RDDP, RNase H, and DDDP; Borkow et al. 1997; cited from earlier work.

`CC(C)(C)c1ccc(C(=O)NN=Cc2c(O)ccc3ccccc23)cc1` [BBNH, N-(4-t-butylbenzoyl)-2-hydroxy-1-naphthaldehyde hydrazone, reference compound]: the IC50 was 3.5 ± 0.8 µM in data set [1] (10 min. preincubation); greater than 50 µM in data set [1] (No preincubation); 1.9 ± 0.1 µM in data set [2]; roughly 5 µM at HIV IN (integrase); 1.5 ± 0.5 µM in [3]; 12.5 ± 5 µM in [4]. Besides, the “preincubation needed for maximal inhibition of RT RNase H” value in data set [1] (in vitro, preincubation of the enzyme with BBNH) was in the range of 10 to 15 min. Also, the cytotoxicity result in the data set with cells was “cytotoxic”. For the same compound, on HIV IN (integrase) (preincubation of the enzyme with BBNH), the “preincubation needed for maximal inhibition of IN” value lay in the range of 10 to 15 min. In data set [5], this compound registered a half-maximal cytotoxic concentration (CC50) at 96 h of 10 ± 0.5 µM. In addition, the “inhibition of replication of HIV-1 in infected cells” value in data set [6] is listed as “inhibits replication of HIV-1 in infected cells”. Moreover, the “inhibition of all three enzymatic activities of HIV-1 RT in vitro” value at HIV-1 RT is reported as “good inhibitor of all three enzymatic activities of HIV-1 RT in vitro”.
